The source of these data is patent publication US12098362B2, “Uses of Daldinia sp. or volatile organic compounds derived therefrom” (THE STATE OF ISRAEL, MINISTRY OF AGRICULTURE & RURAL …, priority 2015, dated 2024).

One assay deals with M. javanica J2 larvae. In words: Phenotype of second stage juveniles under a stereomicroscope after exposure. It is filed as in vivo, Meloidogyne javanica. The note with it: 0.05 mL/L preloaded to 25 mg of perlite particles; 48 hours at 25° C. Here is the method:
FIGS. 20A-D show second stage juveniles' phenotype following exposure to D. concentrica culture, synthetic mixture, and the compound 4-heptanone. The nematodes were exposed to each condition for 48 hours at 25° C. in the dark before visualization. FIG. 20A. Control—non treated nematodes. FIG. 20B. Nematodes exposed to three D. concentrica culture plates (50 mm in diameter with 5 mL growth medium) pre-grown for 4 days. FIG. 20C. Nematodes exposed to 0.25 mL/L of synthetic mixture preloaded to 125 mg of perlite particles. FIG. 20D. Nematodes exposed to 0.05 mL/L of the compound 4-heptanone preloaded to 25 mg of perlite particles. The bar indicates […].
The effects of D. concentrica, synthetic mixture and the pure compound 4-heptanone were also examined visually under a stereomicroscope. The results are presented in FIGS. 20A-D wherein FIG. 20A represents non-treated nematodes; FIG. 20B represents nematodes exposed to three D. concentrica culture plates (50 mm in diameter with 5 mL growth medium) pre-grown for 4 days; FIG. 20C represents nematodes exposed to 0.25 mL/L of synthetic mixture preloaded to 125 mg of perlite particles; FIG. 20D represents nematodes exposed to 0.05 mL/L of the compound 4-heptanone preloaded to 25 mg of perlite particles.

Assay [1] relates to A. niger, B. cinerea, A. alternata, and P. digitatum. In words: Ability of commercially available VOC compounds to control growth of four test fungi. It is filed as cell-based. The settings on record: single commercially available compound. The method, then: (§1) All chemical compounds were purchased from Sigma (Rehovot, Israel) and were of the highest purity available. The bioactivity of the mixtures combined on the VOCs identified, was determined as follows: Petri dishes (90 mm, 80 mL air volume) containing 15 mL of media (PDA amended with 12 μg/mL tetracycline) were inoculated (triplicates, 2 plugs each) with the test fungi A. alternata and B. cinerea (in the same plate), P. digitatum and A. niger (in separate plates). A cup of an Eppendorf tube was placed in the middle of the plate to which increasing volumes (0-200 μL) of the mixture was added. Then, the plates were sealed with parafilm and incubated at room temperature for two days before comparing the growth of the test fungi in those plates to control plates in the absence of the mixture. The ability of two mixtures: Mixture A and Mixture B to control other plant pathogenic fungi was determined as described above except that the concentration of the mixture was constant (1 mL/L) and the growth inhibition was estimated after 6 days. The viability of the test fungi after exposure to the mixtures was examined as described for D. concentrica.
(§2) The activity of each chemical component of the mixture was examined separately as described for the mixtures. […]

A further assay relates to Aspergillus niger. The assay can be described thus: Chemical mixtures bioactivity test in sealed Petri dish. It is filed as cell-based. The note with it: single compound. Here is the method: as §1, §2
A further assay concerns Penicillium digitatum. The description is as above. The format is cell-based. The settings on record: single compound. The method, then: as §1, §2

Consider `CCCC(=O)CCC` [Mixture 4-heptanone, 4-heptanone], for which the “nematode phenotype (body shape, viability)” value in the assay on M. javanica J2 larvae is on record as “most of the nematodes demonstrated the typical straight body shape with nearly no curved appearance”.

On to `OCCc1ccccc1` [phenyl ethyl alcohol], for which the “ability to control the growth of A. niger, B. cinerea, A. alternata, and P. digitatum” value in assay [1] is “failed to inhibit fungal growth”.

For the compound methyl-1,4-cyclohexadiene, the “growth inhibition of A. niger” value in the assay on Aspergillus niger was determined as 10.8%. Also, the “growth inhibition of P. digitatum” value with Penicillium digitatum was 3.1%.

On to `COc1cc2ccccc2cc1O` [3-methoxy-2-naphthol], for which the “ability to control the growth of A. niger, B. cinerea, A. alternata, and P. digitatum” value in assay [1] is “failed to inhibit fungal growth”.
